The term inhibition denotes how much of the control response was suppressed. The low end stands for little suppression, the high end for strong suppression. In general, clearance refers to a measure of how efficiently the substance is removed, as volume per time. High values mean a high capacity for elimination, low ones a low capacity for elimination.

Consider one molecule from ChEMBL document CHEMBL1154622, “Structure-guided design of potent and selective pyrimidylpyrrole inhibitors of extracellular signal-regulated kinase (ERK) using conformational control” (J Med Chem, 2009).

Data set [1] deals with Ribosomal protein S6 kinase alpha-5 (Homo sapiens) (UniProt O75582). Put plainly: Inhibition of MSK1 at 1 uM.
Ribosomal protein S6 kinase alpha-5 (Homo sapiens), sequence (O75582 whole entry, looked up): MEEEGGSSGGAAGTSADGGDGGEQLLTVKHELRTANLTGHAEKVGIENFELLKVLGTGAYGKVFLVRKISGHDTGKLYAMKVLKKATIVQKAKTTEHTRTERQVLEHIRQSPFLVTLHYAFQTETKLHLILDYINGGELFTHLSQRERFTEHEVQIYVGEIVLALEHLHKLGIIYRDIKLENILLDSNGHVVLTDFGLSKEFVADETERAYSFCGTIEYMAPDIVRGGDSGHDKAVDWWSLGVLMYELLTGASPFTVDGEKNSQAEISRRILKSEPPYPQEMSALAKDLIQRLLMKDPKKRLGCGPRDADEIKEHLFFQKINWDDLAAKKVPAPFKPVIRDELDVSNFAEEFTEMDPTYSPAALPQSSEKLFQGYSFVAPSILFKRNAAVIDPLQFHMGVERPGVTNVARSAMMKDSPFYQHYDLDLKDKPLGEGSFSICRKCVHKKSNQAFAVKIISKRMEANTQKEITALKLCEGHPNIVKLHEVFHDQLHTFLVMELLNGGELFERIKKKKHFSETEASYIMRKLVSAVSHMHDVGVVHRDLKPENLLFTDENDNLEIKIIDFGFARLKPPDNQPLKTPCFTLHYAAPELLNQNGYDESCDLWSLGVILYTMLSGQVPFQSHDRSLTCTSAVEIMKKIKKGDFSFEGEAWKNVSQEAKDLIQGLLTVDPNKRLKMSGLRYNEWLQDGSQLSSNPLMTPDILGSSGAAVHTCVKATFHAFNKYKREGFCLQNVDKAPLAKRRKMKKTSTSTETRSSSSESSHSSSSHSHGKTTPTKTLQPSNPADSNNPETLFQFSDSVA
Data set [2] concerns the target Ribosomal protein S6 kinase alpha-1 (Homo sapiens) (UniProt Q15418). Put plainly: Inhibition of RSK1 at 1 uM.
A short description of data set [3]: Clearance in rat at 3 mg/kg, iv. The settings on record: in vivo. The class given is ADME, organism-based. Details: dose 3 mg/kg, route intravenous.
The target of data set [4] is Fibroblast growth factor receptor 1 (Homo sapiens) (UniProt P11362). Put plainly: Inhibition of FGFR1 at 1 uM.
Fibroblast growth factor receptor 1 (Homo sapiens), sequence (P11362 22-822 limits assumed): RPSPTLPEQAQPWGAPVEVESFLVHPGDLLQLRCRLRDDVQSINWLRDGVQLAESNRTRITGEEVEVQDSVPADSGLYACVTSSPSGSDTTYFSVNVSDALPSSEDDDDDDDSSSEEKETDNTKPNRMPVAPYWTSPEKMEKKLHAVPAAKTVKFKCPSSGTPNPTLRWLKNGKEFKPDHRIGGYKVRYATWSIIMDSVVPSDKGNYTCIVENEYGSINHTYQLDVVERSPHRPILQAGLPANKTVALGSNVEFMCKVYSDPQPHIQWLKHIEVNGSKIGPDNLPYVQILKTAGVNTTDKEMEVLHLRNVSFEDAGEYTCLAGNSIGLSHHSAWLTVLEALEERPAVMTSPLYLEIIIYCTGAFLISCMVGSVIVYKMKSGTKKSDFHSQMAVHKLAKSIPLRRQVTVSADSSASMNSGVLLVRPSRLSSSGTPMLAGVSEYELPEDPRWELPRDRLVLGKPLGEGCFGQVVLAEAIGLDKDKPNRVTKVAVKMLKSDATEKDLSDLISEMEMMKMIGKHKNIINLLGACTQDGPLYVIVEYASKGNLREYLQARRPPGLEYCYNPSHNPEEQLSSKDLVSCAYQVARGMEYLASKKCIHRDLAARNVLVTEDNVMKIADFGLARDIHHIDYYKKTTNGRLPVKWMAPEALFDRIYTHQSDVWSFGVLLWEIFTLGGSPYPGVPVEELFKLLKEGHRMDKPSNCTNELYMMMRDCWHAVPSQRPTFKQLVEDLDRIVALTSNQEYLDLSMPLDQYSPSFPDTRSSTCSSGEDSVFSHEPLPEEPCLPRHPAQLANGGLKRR

Ribosomal protein S6 kinase alpha-1 (Homo sapiens), sequence (Q15418 whole entry): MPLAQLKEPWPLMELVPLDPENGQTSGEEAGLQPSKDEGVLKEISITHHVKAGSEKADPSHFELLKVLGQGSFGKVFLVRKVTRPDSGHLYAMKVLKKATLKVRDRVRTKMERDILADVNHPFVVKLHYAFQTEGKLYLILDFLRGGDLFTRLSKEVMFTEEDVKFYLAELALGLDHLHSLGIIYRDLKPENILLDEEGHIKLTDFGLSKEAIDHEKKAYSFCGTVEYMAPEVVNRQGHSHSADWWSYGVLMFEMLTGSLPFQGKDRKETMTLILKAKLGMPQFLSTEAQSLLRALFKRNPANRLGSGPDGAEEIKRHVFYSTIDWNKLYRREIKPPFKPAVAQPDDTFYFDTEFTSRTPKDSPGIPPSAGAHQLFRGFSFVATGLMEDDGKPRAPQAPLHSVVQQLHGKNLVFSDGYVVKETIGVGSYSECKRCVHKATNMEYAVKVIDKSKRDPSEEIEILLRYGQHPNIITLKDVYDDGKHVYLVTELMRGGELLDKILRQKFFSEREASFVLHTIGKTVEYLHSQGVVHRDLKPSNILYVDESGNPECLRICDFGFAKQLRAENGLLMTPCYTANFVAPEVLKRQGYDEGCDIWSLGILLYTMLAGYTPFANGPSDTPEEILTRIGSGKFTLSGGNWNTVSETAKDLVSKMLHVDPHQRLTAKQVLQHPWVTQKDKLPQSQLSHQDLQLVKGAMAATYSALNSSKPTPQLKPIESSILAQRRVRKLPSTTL

For `Cc1cnc(Nc2ccc(F)cc2Cl)nc1-c1c[nH]c(C(=O)N[C@H](CO)c2cccc(Cl)c2)c1`, the figures for the inhibition in data set [1], in data set [2] and in data set [4] were 7%, 4% and 3%, respectively. In data set [3], the clearance was 24 mL/min/kg.
